From PubChem BioAssay (NCI)
Where “and” joins values, the source holds several entries; their conditions need not be identical. Identical values can stand only once.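 Exposure lasted 48 hours, with cells grown in 96-well plates and compounds tested at five concentrations. Here, GI50 denotes the concentration required for 50% inhibition of growth. At the TGI there is no net growth.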

Key:
Experiment in all cases: DTP human tumour cell line panel, 48 h
[1] = test system: TK-10 renal
[2] = test system: NCI-H226 lung
[3] = test system: SK-MEL-5 melanoma
[4] = test system: NCI-H460 lung
[5] = test system: MALME-3M melanoma
[6] = test system: CCRF-CEM leukemia
[7] = test system: A549 NSCLC
[8] = test system: OVCAR-8 ovarian
[9] = test system: U251 CNS
[10] = test system: A498 renal

Row | Compound | GI50 [1] [µM] | TGI [1] [µM] | GI50 [2] [µM] | TGI [2] [µM] | GI50 [3] [µM] | TGI [3] | GI50 [4] [µM] | TGI [4] [µM] | GI50 [5] [µM] | TGI [5] [µM] | TGI [6] [µM] | GI50 [7] | TGI [7] | GI50 [8] | TGI [8] | TGI [9] | TGI [10] | GI50 [9] [µM] | GI50 [6] [µM] | GI50 [10]
1 | COc1ccc(/C(=N\NC(=S)NN)C(c2ccc(OC)cc2)C2C(=O)Oc3ccccc32)cc1 (stereo not given) | > 100 | > 100 | > 100 | > 100 | > 100 | > 100 µM | > 100 | > 100 | > 100 | > 100 | > 100 | > 100 µM | > 100 µM | > 100 µM | > 100 µM |  |  |  |  | 
2 | CCOC(=O)c1cc2c3c(c(O)c(OC)c2s1)N(C(=O)c1cc2c4c(c(O)c(OC)c2s1)N(C(C)=O)CC4)CC3 |  | > 100 |  | > 100 |  | > 100 µM |  | > 100 |  | > 100 | > 100 |  | > 100 µM |  | > 100 µM | > 100 µM | > 100 µM |  |  | 
3 | COc1ccc(OC)c(Cn2cc3c(c2-c2ccccc2)CCc2cnoc2-3)c1 | 8.01 | > 100 | 40.8 | > 100 | 3.7 | 40.3 µM | 3.3 | > 100 | 3.7 | > 100 | > 100 | 5.75 µM | > 100 µM | 19.2 µM | > 100 µM | > 100 µM | 9.28 µM | 5.38 | 4.48 | 2.12 µM
4 | O=C(N/N=C/c1cccc(F)c1)c1ccncc1 |  | > 100 |  | 3.78 |  | > 100 µM |  | > 100 |  | > 100 | > 100 |  | > 100 µM |  |  | > 100 µM | > 100 µM |  |  | 
5 | CC(=O)/C(=C/c1ccccc1F)C(=O)c1ccccc1 |  | 80.9 |  | > 100 |  | > 100 µM |  | 97.8 |  |  |  |  | > 100 µM |  | 51 µM | > 100 µM | > 100 µM |  |  | 
6 | CCOC(=O)C(NC(=O)c1nc[nH]c1[N+](=O)[O-])C(C)C (stereo not given) |  |  |  | > 100 |  | > 100 µM |  | > 100 |  | > 100 | > 100 |  | > 100 µM |  | > 100 µM | > 100 µM | > 100 µM |  |  | 
7 | Cc1c(C(=O)O)oc2ccc([N+](=O)[O-])cc12 |  | > 100 |  |  |  | > 100 µM |  | > 100 |  | > 100 | > 100 |  | > 100 µM |  | > 100 µM | > 100 µM | > 100 µM |  |  | 
8 | Cc1c2ccccc2cc2ccc3oc([N+](=O)[O-])cc3c12 |  | > 100 |  |  |  | > 100 µM |  | > 100 |  | > 100 | > 100 |  | > 100 µM |  | > 100 µM | > 100 µM | > 100 µM |  |  | 
9 | CCC1=CC2CN(C1)Cc1c([nH]c3ccccc13)[C@@](C(=O)OC)(c1cc3c(cc1OC)N(C)[C@H]1[C@@](O)(C(=O)OC)[C@H](OC(C)=O)[C@]4(CC)C=CCN5CC[C@]31[C@@H]54)C2 (stereo not given in full) |  |  | 19.8 | 50 | 0.00873 | 0.501 µM and 0.208 µM | 0.00735 |  | < 0.005 | 8.68 | 20.2 | 0.0114 µM and 0.0208 µM | 50 µM and > 100 µM | 0.0201 µM and 0.0306 µM | 50 µM and > 100 µM | 6.71 µM and 21 µM | 0.326 µM and 0.151 µM | < 0.005 | 0.00879 | 0.014 µM and 0.0173 µM
10 | Cn1cc(C2=C(c3cn(C4CCN(Cc5ccccn5)CC4)c4ccccc34)C(=O)NC2=O)c2ccccc21 | > 41.5 | > 100 |  |  | 2.94 | > 25.9 µM | 4.92 | > 100 | > 23.4 | > 100 | > 100 | 4.92 µM | > 100 µM | 6.23 µM | > 100 µM | > 100 µM |  | 3.74 | 3.75 | 
11 | CC(C)(Oc1ccc(/C=C/C(=O)c2ccc(Cl)cc2)cc1)C(=O)Nc1c(Cl)cccc1Cl |  | > 100 |  | 51.5 |  | 37 µM |  | 98.3 |  | 40.4 |  |  | > 100 µM |  | 30.5 µM | 26.7 µM | 32.4 µM |  |  | 
12 | CCOC(=O)NC(=O)c1cn(CCN2CCN(C(=O)CCCCCCCCCCC(=O)N3CCN(CCn4cc(C(=O)NC(=O)OCC)c(=O)[nH]c4=O)CC3)CC2)c(=O)[nH]c1=O |  | > 100 |  | > 100 |  | > 100 µM |  |  |  | > 100 | > 100 |  | > 100 µM |  | > 100 µM | > 100 µM | > 100 µM |  |  | 
13 | CC(=O)N1CCC2(c3ccccc3N(C(C)=O)C2c2ccc(O)cc2)C1C(=O)O (stereo not given) |  | > 100 |  | > 100 |  | > 100 µM |  |  |  | > 100 | > 100 |  | > 100 µM |  | > 100 µM | > 100 µM | > 100 µM |  |  | 
14 | CCN(C(=O)/C=C/c1ccco1)c1ccccc1 |  | > 100 |  | > 100 |  | > 100 µM |  | > 100 |  |  | > 100 |  | > 100 µM |  | > 100 µM | > 100 µM | > 100 µM |  |  | 
15 | CSC1=Nc2ccccc2N=C(c2ccc(Cl)cc2)C1 |  |  |  | > 100 |  | 51.3 µM |  | > 100 |  | 92.6 | > 100 |  | > 100 µM |  | > 100 µM | > 100 µM |  |  |  | 
16 | C[N+](C)(C)CC1CCCCC1O (stereo not given) |  | > 100 |  | > 100 |  | > 100 µM |  | > 100 |  |  | > 100 |  |  |  | > 100 µM | > 100 µM | > 100 µM |  |  | 
17 | N/N=C1\C(=O)N(CCc2ccccc2)C(=O)C1C(=O)NCCc1ccccc1 (stereo not given) |  | > 100 |  | > 100 |  |  |  |  |  | > 100 | > 100 |  | > 100 µM |  |  | > 100 µM |  |  |  | 
18 | NC(=S)NN/C=C(\C=Nc1ccccc1)[N+](=O)[O-] |  | > 100 |  | > 100 |  |  |  |  |  | > 100 | > 100 |  | > 100 µM |  | > 100 µM |  |  |  |  | 
19 | COc1cnc2c(c1)C(=O)c1c-2n(CCCN2CCN(C)CC2)c(=O)c2cc([N+](=O)[O-])ccc12 | 0.237 | 0.715 | 13.7 | 35.8 | 1.31 | 2.64 µM | 0.135 | 0.365 |  |  | 0.834 | 0.128 µM | 0.337 µM | 1.19 µM | 6.96 µM | 0.386 µM |  | 0.165 | 0.0683 | 
20 | Cc1ccccc1C(=O)N1CCN(C(=O)c2ccccc2C)CC1 |  | > 100 |  |  |  | > 100 µM |  | > 100 |  |  | > 100 |  | > 100 µM |  | > 100 µM | > 100 µM | > 100 µM |  |  | 
